Experimental data from patent publication US20210045385A1, “PYRIDAZINONE-SUBSTITUTED KETOXIMES AS HERBICIDES” (FMC Corporation, priority 2018, published 2021).

Assays:
Format in all cases: in vivo
[1] = system: sedge, umbrella (small-flower umbrella sedge, Cyperus difformis); assay: Test B flooded paddy test, visual plant response rating; settings: 250 g ai/ha, Flood, applied to paddy water, 2-leaf stage, evaluated after 13 to 15 days
Procedure, shortened: (§1)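 Plants were raised to the 2-leaf stage, then pots were flooded to 3 cm above the soil and test compound was applied directly into the paddy water. Water depth was held for the whole test; after 13 to 15 days in a greenhouse, responses were scored visually against controls.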

[2] = system: ducksalad (Heteranhera limosa); assay: as above; settings: 250 g ai/ha, Flood, applied to paddy water, 2-leaf stage, evaluated after 13 to 15 days
Procedure, shortened: as §1

[3] = system: barnyardgrass (Echinochloa crus-galli); assay: as above; settings: 250 g ai/ha, Flood, applied to paddy water, 2-leaf stage, evaluated after 13 to 15 days
Procedure, shortened: as §1

rice (Oryza sativa) = assay: as above; settings: 250 g ai/ha, Flood, applied to paddy water, 2-leaf stage, evaluated after 13 to 15 days
Procedure, shortened: as §1

[4] = system: Italian ryegrass (Lolium multiflorum); assay: Test A preemergence, visual plant response rating; settings: for Ryegrass, Italian plant response rating: 125 g ai/ha, preemergence, 0 to 100 scale, 0 no effect, 100 complete control; for Ryegrass, Italian plant response rating (0 to 100 scale): 500 g ai/ha Preemergence, approx. 10 days
Procedure, shortened: (§2)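 Compared with untreated controls, treated plants received a visual injury score on a 0–100 scale around 10 days after application. The compound, in a non-phytotoxic solvent with surfactant, was given as a preemergence soil spray or postemergence at the one- to two-leaf stage.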

[5] = system: ragweed (common ragweed, Ambrosia elatior); assay: Test A preemergence, visual plant response rating; settings: for Ragweed plant response rating: 125 g ai/ha, preemergence, 0 to 100 scale, 0 no effect, 100 complete control; for Ragweed plant response rating (0 to 100 scale): 500 g ai/ha Preemergence, approx. 10 days
Procedure, shortened: as §2

[6] = system: foxtail, giant (giant foxtail, Setaria faberii); assay: Test A preemergence, visual plant response rating; settings: for Foxtail, Giant plant response rating: 125 g ai/ha, preemergence, 0 to 100 scale, 0 no effect, 100 complete control; for Foxtail, Giant plant response rating (0 to 100 scale): 500 g ai/ha Preemergence, approx. 10 days
Procedure, shortened: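 Greenhouse pot test in loam–sand soil mix: compound in a surfactant-containing non-phytotoxic solvent applied preemergence (directed soil spray) or postemergence (one- to two-leaf plants, 2–10 cm). Injury scored visually after ~10 days, 0–100.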

[7] = system: barnyardgrass (Echinochloa crus-galli); assay: Test A preemergence, visual plant response rating; settings: for Barnyardgrass plant response rating: 125 g ai/ha, preemergence, 0 to 100 scale, 0 no effect, 100 complete control; for Barnyardgrass plant response rating (0 to 100 scale): 500 g ai/ha Preemergence, approx. 10 days
Procedure, shortened: as §2

kochia (Kochia scoparia) [8] = assay: Test A preemergence, visual plant response rating; settings: for Kochia plant response rating: 125 g ai/ha, preemergence, 0 to 100 scale, 0 no effect, 100 complete control; for Kochia plant response rating (0 to 100 scale): 500 g ai/ha Preemergence, approx. 10 days
Procedure, shortened: as §2

[9] = system: pigweed (Amaranthus retroflexus); assay: Test A preemergence, visual plant response rating; settings: for Pigweed plant response rating: 125 g ai/ha, preemergence, 0 to 100 scale, 0 no effect, 100 complete control; for Pigweed plant response rating (0 to 100 scale): 500 g ai/ha Preemergence, approx. 10 days
Procedure, shortened: as §2

[10] = system: blackgrass (Alopecurus myosuroides); assay: Test A postemergence, visual plant response rating; settings: for Blackgrass plant response rating (0 to 100 scale): 500 g ai/ha, postemergence, 0 is no effect, 100 is complete control; for Blackgrass plant response rating: Postemergence, 125 g ai/ha, 0 to 100 scale (0 no effect, 100 complete control)
Procedure, shortened: as §2

[11] = system: wheat (Triticum aestivum); assay: Test A postemergence, visual plant response rating; settings: for Wheat plant response rating (0 to 100 scale): 500 g ai/ha, postemergence, 0 is no effect, 100 is complete control; for Wheat plant response rating: Postemergence, 125 g ai/ha, 0 to 100 scale (0 no effect, 100 complete control)
Procedure, shortened: as §2

[12] = system: galium (catchweed bedstraw, Galium aparine); assay: Test A postemergence, visual plant response rating; settings: for Galium plant response rating (0 to 100 scale): 500 g ai/ha, postemergence, 0 is no effect, 100 is complete control; for Galium plant response rating: Postemergence, 125 g ai/ha, 0 to 100 scale (0 no effect, 100 complete control)
Procedure, shortened: as §2

[13] = system: Italian ryegrass (Lolium multiflorum); assay: Test A postemergence, visual plant response rating; settings: for Ryegrass, Italian plant response rating (0 to 100 scale): 500 g ai/ha, postemergence, 0 is no effect, 100 is complete control; for Ryegrass, Italian plant response rating: Postemergence, 125 g ai/ha, 0 to 100 scale (0 no effect, 100 complete control)
Procedure, shortened: as §2

[14] = system: ragweed (common ragweed, Ambrosia elatior); assay: Test A postemergence, visual plant response rating; settings: for Ragweed plant response rating (0 to 100 scale): 500 g ai/ha, postemergence, 0 is no effect, 100 is complete control; for Ragweed plant response rating: Postemergence, 125 g ai/ha, 0 to 100 scale (0 no effect, 100 complete control)
Procedure, shortened: as §2

[15] = system: foxtail, giant (giant foxtail, Setaria faberii); assay: Test A postemergence, visual plant response rating; settings: for Foxtail, Giant plant response rating (0 to 100 scale): 500 g ai/ha, postemergence, 0 is no effect, 100 is complete control; for Foxtail, Giant plant response rating: Postemergence, 125 g ai/ha, 0 to 100 scale (0 no effect, 100 complete control)
Procedure, shortened: as §2

[16] = system: barnyardgrass (Echinochloa crus-galli); assay: Test A postemergence, visual plant response rating; settings: for Barnyardgrass plant response rating (0 to 100 scale): 500 g ai/ha, postemergence, 0 is no effect, 100 is complete control; for Barnyardgrass plant response rating: Postemergence, 125 g ai/ha, 0 to 100 scale (0 no effect, 100 complete control)
Procedure, shortened: as §2

kochia (Kochia scoparia) [17] = assay: Test A postemergence, visual plant response rating; settings: for Kochia plant response rating (0 to 100 scale): 500 g ai/ha, postemergence, 0 is no effect, 100 is complete control; for Kochia plant response rating: Postemergence, 125 g ai/ha, 0 to 100 scale (0 no effect, 100 complete control)
Procedure, shortened: as §2

[18] = system: pigweed (Amaranthus retroflexus); assay: Test A postemergence, visual plant response rating; settings: for Pigweed plant response rating (0 to 100 scale): 500 g ai/ha, postemergence, 0 is no effect, 100 is complete control; for Pigweed plant response rating: Postemergence, 125 g ai/ha, 0 to 100 scale (0 no effect, 100 complete control)
Procedure, shortened: as §2

corn (Zea mays) = assay: Test A postemergence, visual plant response rating; settings: for Corn plant response rating (0 to 100 scale): 500 g ai/ha, postemergence, 0 is no effect, 100 is complete control; for Corn plant response rating: Postemergence, 125 g ai/ha, 0 to 100 scale (0 no effect, 100 complete control)
Procedure, shortened: as §2

SMILES | Plant response rating, Sedge, Umbrella (0 to 100 scale, 0 is no effect, 100 is complete control) [1] | Plant response rating, Ducksalad (0 to 100 scale, 0 is no effect, 100 is complete control) [2] | Plant response rating, Barnyardgrass (0 to 100 scale, 0 is no effect, 100 is complete control) [3] | Plant response rating, Rice (0 to 100 scale, 0 is no effect, 100 is complete control) (rice (Oryza sativa)) | Ryegrass, Italian plant response rating [4] | Ryegrass, Italian plant response rating (0 to 100 scale) [4] | Ragweed plant response rating [5] | Ragweed plant response rating (0 to 100 scale) [5] | Foxtail, Giant plant response rating [6] | Foxtail, Giant plant response rating (0 to 100 scale) [6] | Barnyardgrass plant response rating [7] | Barnyardgrass plant response rating (0 to 100 scale) [7] | Kochia plant response rating (kochia (Kochia scoparia) [8]) | Kochia plant response rating (0 to 100 scale) (kochia (Kochia scoparia) [8]) | Pigweed plant response rating [9] | Pigweed plant response rating (0 to 100 scale) [9] | Blackgrass plant response rating (0 to 100 scale) [10] | Blackgrass plant response rating [10] | Wheat plant response rating (0 to 100 scale) [11] | Wheat plant response rating [11] | also measured
CO/N=C(\c1ccccc1C(C)C)c1c(O)c(C)nn(C)c1=O [Compound 94] | 0 | 0 | 0 | 0 | 50 | 90 | 10 | 70 | 20 | 60 | 10 | 50 | 0 | 10 | 10 | 70 | 80 | 20 | 40 | 0 | Galium plant response rating (0 to 100 scale) [12]: 70; Galium plant response rating [12]: 60; Ryegrass, Italian plant response rating (0 to 100 scale) [13]: 80; Ryegrass, Italian plant response rating [13]: 30; Ragweed plant response rating (0 to 100 scale) [14]: 70; Ragweed plant response rating [14]: 50; Foxtail, Giant plant response rating (0 to 100 scale) [15]: 70; Foxtail, Giant plant response rating [15]: 40; Barnyardgrass plant response rating (0 to 100 scale) [16]: 30; Barnyardgrass plant response rating [16]: 20; Kochia plant response rating (0 to 100 scale) (kochia (Kochia scoparia) [17]): 60; Kochia plant response rating (kochia (Kochia scoparia) [17]): 20; Pigweed plant response rating (0 to 100 scale) [18]: 80; Pigweed plant response rating [18]: 50; Corn plant response rating (0 to 100 scale) (corn (Zea mays)): 20; Corn plant response rating (corn (Zea mays)): 10
CO/N=C(/c1cc(Cl)ccc1C(F)(F)F)c1c(O)c(C)nn(C)c1=O [Compound 95] | 0 | 0 | 0 | 0 | 90 | 100 | 30 | 100 | 80 | 100 | 60 | 60 | 10 | 70 | 50 | 100 | 100 | 60 | 70 | 40 | Galium plant response rating (0 to 100 scale) [12]: 90; Galium plant response rating [12]: 80; Ryegrass, Italian plant response rating (0 to 100 scale) [13]: 100; Ryegrass, Italian plant response rating [13]: 80; Ragweed plant response rating (0 to 100 scale) [14]: 90; Ragweed plant response rating [14]: 80; Foxtail, Giant plant response rating (0 to 100 scale) [15]: 80; Foxtail, Giant plant response rating [15]: 60; Barnyardgrass plant response rating (0 to 100 scale) [16]: 60; Barnyardgrass plant response rating [16]: 50; Kochia plant response rating (0 to 100 scale) (kochia (Kochia scoparia) [17]): 80; Kochia plant response rating (kochia (Kochia scoparia) [17]): 60; Pigweed plant response rating (0 to 100 scale) [18]: 80; Pigweed plant response rating [18]: 70; Corn plant response rating (0 to 100 scale) (corn (Zea mays)): 40; Corn plant response rating (corn (Zea mays)): 0
CON=C(c1c(O)c(C)nn(C)c1=O)c1cccc2cc(Br)ccc12 [Compound 96] | 0 | 0 | 0 | 0 | 30 | 100 | 90 | 100 | 70 | 100 | 60 | 80 | 20 | 100 | 80 | 100 | 100 | 90 | 50 | 0 | Galium plant response rating (0 to 100 scale) [12]: 90; Galium plant response rating [12]: 90; Ryegrass, Italian plant response rating (0 to 100 scale) [13]: 80; Ryegrass, Italian plant response rating [13]: 80; Ragweed plant response rating (0 to 100 scale) [14]: 100; Ragweed plant response rating [14]: 90; Foxtail, Giant plant response rating (0 to 100 scale) [15]: 70; Foxtail, Giant plant response rating [15]: 20; Barnyardgrass plant response rating (0 to 100 scale) [16]: 30; Barnyardgrass plant response rating [16]: 20; Kochia plant response rating (0 to 100 scale) (kochia (Kochia scoparia) [17]): 80; Kochia plant response rating (kochia (Kochia scoparia) [17]): 60; Pigweed plant response rating (0 to 100 scale) [18]: 90; Pigweed plant response rating [18]: 80; Corn plant response rating (0 to 100 scale) (corn (Zea mays)): 30; Corn plant response rating (corn (Zea mays)): 10
